Measurements published in US5399565A, “Pyrazolidinone CCK and gastrin antagonists and pharmaceutical formulations therof” (priority 1993, dated 1995).
Like-named read-outs stand apart in the source and are kept apart here.

What was measured:
gastrin receptor = biological target: T1, gastrin receptor (Cavia porcellus, UniProt H0VZC5); experiment: Gastrin binding to guinea pig stomach mucosal membranes (125I-gastrin I)
T1 construct: Guinea pig stomach fundus was obtained from male Hartley guinea pigs; from tissue; host or cells: stomach fundus mucosal membranes of male Hartley guinea pigs
T1 sequence (H0VZC5 1-426): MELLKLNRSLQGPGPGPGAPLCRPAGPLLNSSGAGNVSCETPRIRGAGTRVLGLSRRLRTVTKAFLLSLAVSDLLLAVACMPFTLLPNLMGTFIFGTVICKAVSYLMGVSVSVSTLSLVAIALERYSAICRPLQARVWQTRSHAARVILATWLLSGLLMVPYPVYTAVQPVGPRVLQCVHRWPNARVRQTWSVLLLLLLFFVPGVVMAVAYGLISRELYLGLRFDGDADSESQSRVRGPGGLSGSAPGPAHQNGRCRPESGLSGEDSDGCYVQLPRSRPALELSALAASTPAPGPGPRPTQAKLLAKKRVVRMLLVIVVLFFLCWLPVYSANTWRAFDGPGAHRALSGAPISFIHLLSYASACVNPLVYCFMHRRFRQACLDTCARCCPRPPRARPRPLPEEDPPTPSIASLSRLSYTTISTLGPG
Experimental: The method used for gastrin binding to guinea pig stomach mucosal membranes was similar to that described by Takeuchi, Speir and Johnson (Am. J. Physiol. 237(3): E284-E294, 1979). Guinea pig stomach fundus was obtained from male Hartley guinea pigs, 300-350 g, and the mucosa was scraped off with a glass slide. The mucosa was homogenized in 50 mM Tris buffer, pH 7.4, containing 1 mM phenylmethanesulfonyl fluoride using a Dounce glass homogenizer, and the suspension was centrifuged at 40,000 g for 10 min. The resulting pellet was resuspended and centrifuged once more, the final pellet was then suspended in 100 ml assay buffer per 1 guinea pig stomach to give a protein concentration of 200-300 μg/200 μl. The assay buffer consisted of 50 mM Tris buffer, pH 7.4, 5 mM MgCl2, 0.14 mg/ml bacitracin, and 1 μg/ml each of leupeptin, chymostatin, aprotinin and pepstatin. Reagent volumes for the assay were the same as those used for CCK binding to brain membranes. The radioactive ligand was 20 pM ^125 I-gastrin I, from DuPont NEN (NEX-176). The samples were incubated 3 hours at room temperature and filtered and counted as described for CCK binding to brain membranes. Compound samples were prepared and IC-50 values were determined as described for the CCK-brain receptor binding. Non-specific binding was determined using 100 nM gastrin I (human synthetic from Sigma Chemical Co.).

[1] = biological target: T2, peripheral type CCK receptors in rat pancreas (Rattus norvegicus, UniProt P30551); experiment: Binding to peripheral type CCK receptors in rat pancreas (3H-L-364,718); conditions: for inhibition at 10 µM: read-out: Pancreas Percent Inhibition; for IC50: rat pancreas
T2 construct: Pancreas was obtained from male Sprague-Dawley rats; from tissue; host or cells: pancreas membranes of male Sprague-Dawley rats
T2 sequence (P30551 1-444): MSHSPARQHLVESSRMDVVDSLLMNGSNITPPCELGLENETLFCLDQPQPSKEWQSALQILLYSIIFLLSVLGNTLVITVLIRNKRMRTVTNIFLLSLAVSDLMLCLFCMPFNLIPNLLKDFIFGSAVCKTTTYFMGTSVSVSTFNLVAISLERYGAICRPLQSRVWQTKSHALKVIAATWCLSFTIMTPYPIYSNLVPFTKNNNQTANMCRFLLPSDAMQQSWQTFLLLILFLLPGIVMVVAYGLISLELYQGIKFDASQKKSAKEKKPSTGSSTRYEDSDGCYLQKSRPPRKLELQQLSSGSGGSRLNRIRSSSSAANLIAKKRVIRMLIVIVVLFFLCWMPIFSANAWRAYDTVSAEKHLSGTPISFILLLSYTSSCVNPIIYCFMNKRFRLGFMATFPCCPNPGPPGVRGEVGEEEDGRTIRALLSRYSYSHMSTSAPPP
Procedure, shortened: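 Washed pancreatic membranes from male Sprague-Dawley rats (150-200 g) incubated 1 h at room temperature with 0.4-0.6 nM ³H-L-364,718 in 50 mM Tris pH 7.4, 5 mM MgCl2, bacitracin, 5 mM DTT. Bound radioactivity counted after filtration; nonspecific binding defined with 100 nM L-364,718; IC50 determined.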

brain CCK receptor = biological target: T3, brain CCK receptor (Mus musculus, UniProt P56481); experiment: CCK receptor binding, mouse brain membranes (125I-CCK-8 sulfate)
T3 construct: from tissue; host or cells: forebrain membranes of male CF-1 mice
T3 sequence (P56481 1-453): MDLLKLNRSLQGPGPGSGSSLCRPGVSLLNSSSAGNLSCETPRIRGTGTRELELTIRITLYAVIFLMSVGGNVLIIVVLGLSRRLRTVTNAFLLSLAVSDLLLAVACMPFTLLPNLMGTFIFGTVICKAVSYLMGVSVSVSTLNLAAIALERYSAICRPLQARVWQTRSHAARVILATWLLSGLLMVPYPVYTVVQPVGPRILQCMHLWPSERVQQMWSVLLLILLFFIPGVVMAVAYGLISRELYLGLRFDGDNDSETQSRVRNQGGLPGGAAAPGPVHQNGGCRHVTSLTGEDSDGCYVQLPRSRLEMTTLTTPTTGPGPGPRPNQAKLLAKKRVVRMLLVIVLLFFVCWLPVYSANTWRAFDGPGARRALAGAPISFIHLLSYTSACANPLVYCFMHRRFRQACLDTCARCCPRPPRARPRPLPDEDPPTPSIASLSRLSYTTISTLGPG

[2] = Brain IC50, mouse brain membranes
[3] = guinea pig stomach mucosal membranes, read-out: Gastrin IC50
[4] = mouse brain membranes, read-out: Brain IC50

| SMILES | IC50 (gastrin receptor) [nM] | inhibition at 10 µM ([1]; at 10 μM) [%] | IC50 (brain CCK receptor; [2]) [nM] | IC50 (gastrin receptor; [3]) [nM] | IC50 (brain CCK receptor; [4]) [nM] | IC50 [1] [nM] | Pancreas Percent Inhibition ([1]; at 10 μM) [%] | inhibition at 10 µM (brain CCK receptor; at 10 μM, read-out: Brain Percent Inhibition) [%] |
| --- | --- | --- | --- | --- | --- | --- | --- | --- |
| N#Cc1cccc(C2C(c3ccccc3)C(=O)NN2C(=O)Nc2ccc(C(F)(F)F)cc2)c1 (stereo not shown) [Example 111] | 610 | 35 | 20 | – | – | – | – | – |
| O=C1NN(C(=O)Nc2ccc(Br)cc2)C(c2ccccc2)C1c1ccc(Cl)cc1 (stereo not shown) [Example 129] | – | 69 | – | 860 | 160 | – | – | – |
| O=C1NN(C(=O)Nc2ccc(C(F)(F)F)cc2)[C@@H](c2ccccc2)[C@@H]1c1ccccc1 (relative stereo) [Example 16] | – | 62 | – | 420 | 44 | – | – | – |
| O=C1NN(C(=O)Nc2ccc(Br)cc2)C(c2ccccc2)C1c1cccc2ccccc12 (stereo not shown) [Example 134] | – | 75 | – | 93 | 33 | – | – | – |
| NC(=O)c1cccc(C2C(c3ccccc3)C(=O)NN2C(=O)Nc2ccc(Br)cc2)c1 (stereo not shown) [Example 118] | – | 41 | – | 5200 | 360 | – | – | – |
| O=C1NN(C(=O)Nc2ccc3c(c2)CCC3)[C@H](c2ccccc2)[C@H]1c1ccccc1 (relative stereo) [Example 49] | – | 40 | – | 250 | 43 | – | – | – |
| O=C1NN(C(=O)Nc2ccc(Br)cc2)[C@@H](c2ccccc2)[C@@H]1c1ccccc1 (relative stereo) [Example 20] | – | – | – | 490 | 31 | 11600 | – | – |
| CC(C)c1ccc(NC(=O)N2NC(=O)C(c3ccccc3)C2c2ccccc2Cl)cc1 (stereo not shown) [Example 121] | – | 26 | – | 120 | 14 | – | – | – |
| O=C1NN(C(=O)Nc2ccc(Br)cc2)C(c2ccccc2)C1c1cccc(Br)c1 (stereo not shown) [Example 127] | – | 73 | – | 210 | 32 | – | – | – |
| O=C1NN(C(=O)Nc2ccc(Br)cc2)C(c2ccccc2Cl)C1c1ccccc1 (stereo not shown) [Example 114] | – | 38 | – | 360 | 20 | – | – | – |
| O=C1NN(C(=O)Nc2ccc(Br)cc2)C(c2ccccc2)C1c1ccccc1Cl (stereo not shown) [Example 122] | – | – | – | 220 | 15 | 8600 | – | – |
| O=C1NN(C(=O)Nc2ccc(Cl)c(C(F)(F)F)c2)C(c2ccccc2)C1c1ccccc1Cl (stereo not shown) [Example 131] | – | 61 | – | 62 | 12 | – | – | – |
| CC(C)c1ccc(NC(=O)N2NC(=O)[C@@H](c3ccccc3)[C@@H]2c2ccccc2)cc1 (relative stereo) [Example 29] | – | 47 | – | 260 | 25 | – | – | – |
| O=C1NN(C(=O)Nc2ccc(Cl)c(Cl)c2)[C@H](c2ccccc2)[C@H]1c1ccccc1 (relative stereo) [Example 46] | – | – | – | 210 | 42 | 1200 | – | – |
| O=C1NN(C(=O)Nc2ccc(Cl)c(C(F)(F)F)c2)C(c2ccccc2Cl)C1c1ccccc1 (stereo not shown) [Example 120] | – | 87 | – | 120 | 16 | – | – | – |
| O=C1NN(C(=O)Nc2ccc(Br)cc2)[C@@H](c2cccc(Cl)c2Cl)[C@H]1c1ccccc1 (relative stereo) [Example 117] | – | 64 | – | 1000 | 400 | – | – | – |
| COc1cccc(C2C(=O)NN(C(=O)Nc3ccc(Br)cc3)C2c2ccccc2)c1 (stereo not shown) [Example 123] | – | 23 | – | 690 | 68 | – | – | – |

| SMILES | IC50 (gastrin receptor) [nM] | inhibition at 10 µM ([1]; at 10 μM) [%] | IC50 (brain CCK receptor; [2]) [nM] | IC50 (gastrin receptor; [3]) [nM] | IC50 (brain CCK receptor; [4]) [nM] | IC50 [1] [nM] | Pancreas Percent Inhibition ([1]; at 10 μM) [%] | inhibition at 10 µM (brain CCK receptor; at 10 μM, read-out: Brain Percent Inhibition) [%] |
| --- | --- | --- | --- | --- | --- | --- | --- | --- |
| O=C1NN(C(=O)NCCc2ccccc2Cl)[C@@H](c2ccccc2)[C@@H]1c1ccccc1 (relative stereo) [Example 106] | – | 78 | – | 870 | 190 | – | – | – |
| O=C1NN(C(=O)Nc2cnc3ccccc3c2)[C@@H](c2ccccc2)[C@@H]1c1ccccc1 (relative stereo) [Example 92] | – | 88 | – | 160 | 64 | – | – | – |
| CC(C)(C)c1ccc(NC(=O)N2NC(=O)[C@@H](c3ccccc3)[C@@H]2c2ccccc2)cc1 (relative stereo) [Example 30] | – | 49 | – | 350 | 31 | – | – | – |
| O=C1NN(C(=O)Nc2ccc(C(F)(F)F)cc2)C(c2ccccc2)C1c1ccccc1Cl (stereo not shown) [Example 130] | 100 | 42 | 12 | – | – | – | – | – |
| O=C1NN(C(=O)Nc2ccc(Br)cc2)C(c2cccnc2)C1c1ccccc1 (stereo not shown) [Example 135] | – | 18 | – | 1700 | 140 | – | – | – |
| O=C1NN(C(=O)Nc2ccc3c(c2)CCCC3)[C@H](c2ccccc2)[C@H]1c1ccccc1 (relative stereo) [Example 50] | – | 87 | – | 81 | 13 | – | – | – |
| CC(C)c1ccc(NC(=O)N2NC(=O)C(c3ccccc3Cl)C2c2ccccc2)cc1 (stereo not shown) [Example 132] | – | 48 | – | 70 | 8 | – | – | – |
| O=C1NN(C(=O)Nc2ccc(Br)cc2)C(c2ccccc2)C1c1cccc([N+](=O)[O-])c1 (stereo not shown) [Example 125] | – | 42 | – | 590 | 100 | – | – | – |
| O=C1NN(C(=O)Nc2ccc(Br)cc2)[C@@H](c2ccccc2Cl)[C@H]1c1ccccc1Cl (relative stereo) [Example 133A] | – | 55 | – | 1500 | 360 | – | – | – |
| COc1ccccc1C1C(c2ccccc2)C(=O)NN1C(=O)Nc1ccc(Br)cc1 (stereo not shown) [Example 115] | – | 53 | – | 320 | 150 | – | – | – |
| COc1cccc(C2C(c3ccccc3)C(=O)NN2C(=O)Nc2ccc(C(F)(F)F)cc2)c1 (stereo not shown) [Example 112] | – | 42 | – | 1400 | 72 | – | – | – |
| O=C1NN(C(=O)Nc2ccc(Br)cc2)[C@@H](c2cccc(Cl)c2Cl)[C@@H]1c1ccccc1 (relative stereo) [Example 116] | – | 80 | – | 230 | 31 | – | – | – |
| O=C1NN(C(=O)Nc2ccc(Cl)c(C(F)(F)F)c2)[C@@H](c2ccccc2)[C@@H]1c1ccccc1 (relative stereo) [Example 1, 1-[(4-Chloro-3-trifluoromethylphenyl)aminocarbonyl]-4,5-diphenyl-3-pyrazolidinone] | – | – | – | 150 | 22 | 190 | – | – |
| O=C1NN(C(=O)Nc2ccc(C(F)(F)F)cc2)C(c2ccccc2Cl)C1c1ccccc1 (stereo not shown) [Example 110] | – | – | – | 130 | 7 | – | 47 | – |
| O=C1NN(C(=O)Nc2ccc(Cl)cc2)[C@@H](c2ccccc2)[C@@H]1c1ccccc1 (relative stereo) [Example 18] | – | 22 | – | – | 93 | – | – | – |
| O=C1NN(c2nc3ccccc3o2)[C@@H](c2ccccc2)[C@@H]1c1ccccc1 (relative stereo) [Example 87] | – | 23 | – | – | – | – | – | 47 |
